Consider 11 compounds from patent US8809280B2, “Therapeutic peptides” (Lytix Biopharma AS, priority 2009, dated 2014).

≈ marks a conversion by molar mass, not a printed value. Where “and” joins values, the source holds several entries; their conditions need not be identical. Equal values may be shown once. Read-outs that look alike come from different tables or passages of the source. Starred links: 1 amine or outer side, 2 acyl side, 3 side chain; linkers in the order of their positions; H or OH if unused. Non-standard residues stand in square brackets, D forms with d. Residues, ends and D or L forms follow the SMILES beside them. X1 = Cc1cc(C)cc(CC(CN[*:1])(Cc2cc(C)cc(C)c2)C(=O)[*:2])c1; X4 = O=C(C(CN[*:1])(Cc1ccc(F)cc1)Cc1ccc(F)cc1)[*:2]

Holding throughout (type): cell-based
Assay [1] deals with Staphylococcus aureus (ATTC 25923). Description: microbe, parasite or virus in culture. The following applies: Example 2, values separated by / are repeat tests; for MIC: Staphylococcus aureus, read-out: Antimicrobial potency (MIC) S. aureus. The method in brief: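 Di-TFA salts tested in duplicate at 0.5–200 μg/ml against exponential-phase bacteria at 2×10^6 cfu/ml grown in 2% peptone water. Growth judged by well turbidity, with no-peptide and gentamicin controls.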

The subject of assay [2] is methicillin resistant Staphylococcus epidermidis (ATCC 27626). Description: microbe, parasite or virus in culture. The following applies: Example 2, values separated by / are repeat tests; for MIC: Staphylococcus epidermidis, ATCC 27626 / MRSE, read-out: Antimicrobial potency (MIC) MRSE. The method in brief: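 Exponentially grown bacteria (2% peptone water) at 2×10^6 cfu/ml exposed in duplicate to di-TFA salts at 0.5–200 μg/ml. Growth or no growth judged by well turbidity; no-peptide and gentamicin controls included.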

For assay [3], the system named is Escherichia coli (ATTC 25922). Description: microbe, parasite or virus in culture. Particulars: Example 2, values separated by / are repeat tests; for MIC: Escherichia coli, read-out: Antimicrobial potency (MIC) E. coli. The essentials:
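Broth dilution in 2% Bacto Peptone water, inoculum 2×10^6 cfu/ml of exponential-phase bacteria; compounds (di-TFA salts) tested in duplicate at 200 down to 0.5 μg/ml. Growth judged by well turbidity, with no-peptide negative and gentamicin positive controls.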

The next assay deals with human red blood cells. Description: cells. Particulars: Homo sapiens, Erythrocyte; Example 2; highest concentration tested 1000 μg/ml; * low solubility in the test media; read-out: Toxicity RBC (EC50). The essentials:
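Washed heparinized RBCs, diluted to 10% hematocrit then to 1% v/v final, incubated with compounds in PBS (1–1000 μg/mL) for 1 h at 37 °C with agitation. Hemoglobin release read at 405 nm against PBS (0%) and 0.1% Triton X-100 (100%); value reported is concentration giving 50% hemolysis.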

The test system of the next assay is A20. Description: cells. The following applies: for IC50: Mus musculus, A20, Example 2, read-out: Anticancer potency (IC50) A20; for Anti-Cancer Selectivity MRC-5/A20: ratio of MRC-5 to A20 values; for Anti-Cancer Selectivity RBC/A20: ratio of RBC EC50 to A20 IC50. Here is the method: Cancer Cell Lines A20 or MethA Anticancer assays: 500 μg/ml
The next assay relates to MRC-5. Description: Toxicity assay MRC-5. Particulars: highest concentration tested 500 μg/ml; for IC50: Homo sapiens, MRC5, Example 2; for Toxicity MRC-5: Example 2. Here is the method: Cells for Toxicity Studies Used MRC-5 and human RBC MRC-5 assay: 500 μg/ml
In assay [4] the test system is methicillin resistant Staphylococcus aureus (ATCC 33591). Description: microbe, parasite or virus in culture. The following applies: Example 2, values separated by / are repeat tests; for MIC: Staphylococcus aureus, ATCC 33591 / MRSA, read-out: Antimicrobial potency (MIC) MRSA. The essentials:
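Di-TFA salts tested in duplicate at 200 down to 0.5 μg/ml against exponentially grown bacteria at 2×10^6 cfu/ml. Growth judged by well turbidity, with no-peptide and gentamicin controls.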

The mark [5] stands for this setting: Example 2, highest concentration tested 500 μg/ml, * low solubility in the test media (Table 2).
Where [6] appears, read: highest concentration tested 500 μg/ml, * low solubility in the test media (Table 2).

In general, EC50 refers to the midpoint of the concentration-response curve. One may read the IC50 as the midpoint of a concentration-inhibition curve. `NCCNC(=O)C(CN)(CCC1CCCCC1)CCC1CCCCC1` [Compound 3, N-(2-aminoethyl)-2-(aminomethyl)-4-cyclohexyl-2-(2-cyclohexylethyl)butanamide]: in assay [1], the “Antimicrobial potency (MIC) S. aureus” value came out at 10 µg/mL and the MIC came to 7.5 µg/mL (≈ 21.3 µM). In addition, in assay [2], the “Antimicrobial potency (MIC) MRSE” value was determined as 5 µg/mL and the MIC was 2.5 µg/mL (≈ 7.11 µM). In assay [3], the MIC was 15 µg/mL (≈ 42.7 µM) and the “Antimicrobial potency (MIC) E. coli” value is 10 µg/mL. Further, the EC50 in the assay on human red blood cells was found to be 62 µg/mL (≈ 176 µM). In the assay with A20 (setting [5]), the “Anticancer potency (IC50) A20” value came out at 1.7 µg/mL. The IC50 in the assay on A20 (setting [6]) was < 3.35 µg/mL. Further, in the assay with A20, the “Anti-Cancer Selectivity MRC-5/A20” value is reported as “(<5.9)” and the “Anti-Cancer Selectivity RBC/A20” value was found to be 36.5. Also, the IC50 in the assay with MRC-5 is < 10 µg/mL.
On to `NCCNC(=O)C(CN)(Cc1ccccc1)Cc1ccccc1` [Compound 4], for which the MIC in assay [1], in assay [4], in assay [2] and in assay [3] was > 200 µg/mL each time. Also, in the assay on human red blood cells, the EC50 is > 1000 µg/mL. In addition, the IC50 in the assay on A20 (setting [6]) was 68.6 µg/mL (≈ 220 µM); with MRC-5, 261 µg/mL (≈ 838 µM). Also, the “Anti-Cancer Selectivity MRC-5/A20” value with A20 turned out to be 3.8.
With `NCCNC(=O)C(CN)(CCCc1ccccc1)CCCc1ccccc1` [Compound 6, N-(2-aminoethyl)-2-(aminomethyl)-5-phenyl-2-(3-phenylpropyl)pentanamide], the “Antimicrobial potency (MIC) S. aureus” value in assay [1] came to 50 µg/mL. Further, the MIC in assay [1] was 35 µg/mL (≈ 95.2 µM); in assay [4] it was 35 µg/mL (≈ 95.2 µM); in assay [2], 15 µg/mL (≈ 40.8 µM); in assay [3], 200 µg/mL (≈ 544 µM). Moreover, the EC50 in the assay on human red blood cells came to 820 µg/mL (≈ 2230 µM). In addition, the IC50 in the assay with A20 (setting [6]) was 8.3 µg/mL (≈ 22.6 µM); in the assay on MRC-5, 35 µg/mL (≈ 95.2 µM). Besides, the “Anti-Cancer Selectivity MRC-5/A20” value in the assay with A20 is 4.2. The “Anti-Cancer Selectivity RBC/A20” value in the assay with A20 is recorded as 98.8.
As to `NCCNC(=O)C(CN)(Cc1ccc(C(F)(F)F)cc1)Cc1ccc(C(F)(F)F)cc1` [Compound 9, 3-amino-N-(2-aminoethyl)-2,2-bis(4-(trifluoromethyl)benzyl)propanamide], the MIC in assay [1] turned out to be 10 µg/mL (≈ 22.4 µM); in assay [4], 5 µg/mL (≈ 11.2 µM); in assay [2], 10 µg/mL (≈ 22.4 µM); in assay [3], 35 µg/mL (≈ 78.2 µM). Also, in the assay on human red blood cells, the EC50 stood at 287 µg/mL (≈ 641 µM). In addition, the “Anti-Cancer Selectivity MRC-5/A20” value in the assay with A20 is listed as 10-12. Moreover, in the assay with A20, the “Anti-Cancer Selectivity RBC/A20” value is 287. For the same compound, the “Toxicity MRC-5” value with MRC-5 was found to be 12 µg/mL. For the same compound, in the assay on MRC-5, the IC50 was < 10 µg/mL.
With `CC(C)c1ccc(CC(CN)(Cc2ccc(C(C)C)cc2)C(=O)NCCN)cc1` [Compound 10, 3-amino-N-(2-aminoethyl)-2,2-bis(4-isopropylbenzyl)propanamide], in assay [1], the “Antimicrobial potency (MIC) S. aureus” value turned out to be 10 µg/mL and the MIC was determined as 5 µg/mL (≈ 12.6 µM). Further, in assay [4], the “Antimicrobial potency (MIC) MRSA” value is 10 µg/mL and the MIC came to 5 µg/mL (≈ 12.6 µM). Besides, the MIC in assay [2] stood at 5 µg/mL (≈ 12.6 µM). For the same compound, the EC50 in the assay on human red blood cells came out at 47 µg/mL (≈ 119 µM). Further, in the assay on A20, the “Anti-Cancer Selectivity MRC-5/A20” value is “(<4.8)” and the “Anti-Cancer Selectivity RBC/A20” value stood at 33.6. For the same compound, in the assay on MRC-5, the IC50 is < 6.67 µg/mL.
`Cc1cc(C)cc(CC(CN)(Cc2cc(C)cc(C)c2)C(=O)NCCN)c1` [Compound 12, 3-amino-N-(2-aminoethyl)-2,2-bis(3,5-dimethylbenzyl)propanamide]: the MIC was determined as 35 µg/mL (≈ 95.2 µM) in assay [1], 35 µg/mL (≈ 95.2 µM) in assay [4], 5 µg/mL (≈ 13.6 µM) in assay [2] and 50 µg/mL (≈ 136 µM) in assay [3]. Moreover, the “Antimicrobial potency (MIC) MRSE” value in assay [2] was 10 µg/mL. For the same compound, in assay [3], the “Antimicrobial potency (MIC) E. coli” value was found to be 100 µg/mL. Besides, the “Anticancer potency (IC50) A20” value in the assay with A20 (setting [5]) was < 10 µg/mL. Further, the IC50 in the assay on A20 (setting [6]) is < 5 µg/mL; in the assay on MRC-5, 10 µg/mL (≈ 27.2 µM). In the assay with A20, the “Anti-Cancer Selectivity MRC-5/A20” value is recorded as “(>2 )”.
`NCCCC[C@@H](N)C(=O)N[C@H](CCCCN)C(=O)N[C@H](Cc1c[nH]c2ccccc12)C(=O)NCC(Cc1ccc2ccccc2c1)(Cc1ccc2ccccc2c1)C(=O)N[C@@H](Cc1c[nH]c2ccccc12)C(=O)N[C@@H](CCCCN)C(=O)N[C@@H](CCCCN)C(N)=O` [Compound 18, (R)-N-((2R,9S,12S,15S)-9-((1H-indol-3-yl)methyl)-19-amino-12-(4-aminobutyl)-15-carbamoyl-1-(1H-indol-3-yl)-6,6-bis(naphthalen-2-ylmethyl)-3,7,10,13-tetraoxo-4,8,11,14-tetraazanonadecan-2-yl)-6-amino-2-((R)-2,6-diaminohexanamido)hexanamide]: in the assay on A20, the “Anticancer potency (IC50) A20” value was found to be 24 µg/mL and the “Anti-Cancer Selectivity MRC-5/A20” value was 4.3. For the same compound, the “Toxicity MRC-5” value in the assay with MRC-5 was 103 µg/mL.
For the compound `NCCCC[C@@H](N)C(=O)N[C@H](CCCCN)C(=O)N[C@H](Cc1c[nH]c2ccccc12)C(=O)NCC(Cc1ccc(F)cc1)(Cc1ccc(F)cc1)C(=O)N[C@@H](Cc1c[nH]c2ccccc12)C(=O)N[C@@H](CCCCN)C(=O)N[C@@H](CCCCN)C(N)=O` [Compound 19, (R)-N-((2R,9S,12S,15S)-9-((1H-indol-3-yl)methyl)-19-amino-12-(4-aminobutyl)-15-carbamoyl-6,6-bis(4-fluorobenzyl)-1-(1H-indol-3-yl)-3,7,10,13-tetraoxo-4,8,11,14-tetraazanonadecan-2-yl)-6-amino-2-((R)-2,6-diaminohexanamido)hexanamide] (H-[dK][dK][dW][X4]WKK-NH2), in the assay on A20, the “Anticancer potency (IC50) A20” value was found to be 197 µg/mL and the “Anti-Cancer Selectivity MRC-5/A20” value is listed as “(>2.5)”. Moreover, in the assay with MRC-5, the “Toxicity MRC-5” value was >500 µg/mL.
With `NCCCC[C@@H](N)C(=O)N[C@H](CCCCN)C(=O)N[C@H](Cc1c[nH]c2ccccc12)C(=O)NCC(Cc1ccc(C(F)(F)F)cc1)(Cc1ccc(C(F)(F)F)cc1)C(=O)N[C@@H](Cc1c[nH]c2ccccc12)C(=O)N[C@@H](CCCCN)C(=O)N[C@@H](CCCCN)C(N)=O` [Compound 20, (R)-N-((2R,9S,12S,15S)-9-((1H-indol-3-yl)methyl)-19-amino-12-(4-aminobutyl)-15-carbamoyl-1-(1H-indol-3-yl)-3,7,10,13-tetraoxo-6,6-bis(4-(trifluoromethyl)benzyl)-4,8,11,14-tetraazanonadecan-2-yl)-6-amino-2-((R)-2,6-diaminohexanamido)hexanamide], in the assay on A20, the “Anticancer potency (IC50) A20” value was 37 µg/mL and the “Anti-Cancer Selectivity MRC-5/A20” value amounted to 7.0. Besides, the “Toxicity MRC-5” value in the assay on MRC-5 amounted to 260 µg/mL.
`CC(C)(C)c1ccc(CC(CNC(=O)[C@@H](Cc2c[nH]c3ccccc23)NC(=O)[C@@H](CCCCN)NC(=O)[C@H](N)CCCCN)(Cc2ccc(C(C)(C)C)cc2)C(=O)N[C@@H](Cc2c[nH]c3ccccc23)C(=O)N[C@@H](CCCCN)C(=O)N[C@@H](CCCCN)C(N)=O)cc1` [Compound 21, (R)-N-((2R,9S,12S,15S)-9-((1H-indol-3-yl)methyl)-19-amino-12-(4-aminobutyl)-6,6-bis(4-tert-butylbenzyl)-15-carbamoyl-1-(1H-indol-3-yl)-3,7,10,13-tetraoxo-4,8,11,14-tetraazanonadecan-2-yl)-6-amino-2-((R)-2,6-diaminohexanamido)hexanamide]: in the assay on A20, the “Anti-Cancer Selectivity MRC-5/A20” value is 2.9 and 3.2. Also, the “Toxicity MRC-5” value in the assay with MRC-5 is 42 µg/mL and 55.2 µg/mL.
As to `Cc1cc(C)cc(CC(CNC(=O)[C@@H](Cc2c[nH]c3ccccc23)NC(=O)[C@@H](CCCCN)NC(=O)[C@H](N)CCCCN)(Cc2cc(C)cc(C)c2)C(=O)N[C@@H](Cc2c[nH]c3ccccc23)C(=O)N[C@@H](CCCCN)C(=O)N[C@@H](CCCCN)C(N)=O)c1` [Compound 22, (R)-N-((2R,9S,12S,15S)-9-((1H-indol-3-yl)methyl)-19-amino-12-(4-aminobutyl)-15-carbamoyl-6,6-bis(3,5-dimethylbenzyl)-1-(1H-indol-3-yl)-3,7,10,13-tetraoxo-4,8,11,14-tetraazanonadecan-2-yl)-6-amino-2-((R)-2,6-diaminohexanamido)hexanamide] (H-[dK][dK][dW][X1]WKK-NH2), in the assay with A20, the “Anti-Cancer Selectivity MRC-5/A20” value is 7.4 and 5.1. Further, the “Toxicity MRC-5” value with MRC-5 is 237 µg/mL and 205 µg/mL.
